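Growth conditions: 96-well plates. Treatment: test compound, 48 hours, 5 concentrations. Analysis: linear interpolation between bracketing concentrations; unreached endpoints set to highest concentration. The concentration for 50% growth inhibition is given as GI50.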 The source made the active and inactive calls. Cut-off read from the data, not from the text of the source: active = GI50 up to about 1.1 µM and inactive = higher.
Tests used:
Test in all cases: DTP human tumour cell line panel, 48 h
BT-549 = test system: BT-549
SR = test system: SR
K562 = test system: K562
RXF 393 = test system: RXF 393
HCT-15 = test system: HCT-15
SK-OV-3 = test system: SK-OV-3
RPMI-8226 = test system: RPMI-8226
SW-620 = test system: SW-620
NCI-H522 = test system: NCI-H522
OVCAR-4 = test system: OVCAR-4
EKVX = test system: EKVX
LOX IMVI = test system: LOX IMVI
HOP-92 = test system: HOP-92
MCF7 = test system: MCF7
SF-268 = test system: SF-268
SK-MEL-5 = test system: SK-MEL-5
IGROV-1 = test system: IGROV-1
HL-60 = test system: HL-60
A549 = test system: A549
HCC 2998 = test system: HCC 2998

| SMILES | GI50 (BT-549) | GI50 (SR) | GI50 (K562) | GI50 (RXF 393) | GI50 (HCT-15) | GI50 (SK-OV-3) | GI50 (RPMI-8226) | GI50 (SW-620) | GI50 (NCI-H522) | GI50 (OVCAR-4) | GI50 (EKVX) | GI50 (LOX IMVI) | GI50 (HOP-92) | GI50 (MCF7) | GI50 (SF-268) | GI50 (SK-MEL-5) | GI50 (IGROV-1) | GI50 (HL-60) | GI50 (A549) | GI50 (HCC 2998) |
| --- | --- | --- | --- | --- | --- | --- | --- | --- | --- | --- | --- | --- | --- | --- | --- | --- | --- | --- | --- | --- |
| CC(C)(C)c1cc(C2NCCO2)cc(C(C)(C)C)c1O (stereo not drawn) | > 100 µM (inactive) | > 100 µM (inactive) | > 100 µM (inactive) | 14.7 µM (inactive) | 57 µM | 32.1 µM (inactive) | > 100 µM (inactive) | > 100 µM (inactive) | > 100 µM (inactive) | > 100 µM (inactive) | 77.3 µM (inactive) | > 100 µM (inactive) | 74.6 µM (inactive) | 76.7 µM (inactive) | 32.4 µM (inactive) | > 100 µM (inactive) | 96.6 µM (inactive) | > 100 µM (inactive) |  |  |
| Clc1ccccc1/C=C/c1nsc(/C=C/c2ccccc2Cl)n1 | 92 µM (inactive) | 22.1 µM (inactive) | 21.8 µM (inactive) | > 100 µM (inactive) | 38 µM | 70.1 µM (inactive) | 31.3 µM (inactive) |  | 33.1 µM (inactive) | 81.7 µM (inactive) | 61 µM (inactive) | 37.2 µM (inactive) | > 100 µM (inactive) | 32 µM (inactive) | 55.5 µM (inactive) | 36.1 µM (inactive) | 84.1 µM (inactive) | 21.6 µM (inactive) | 73.8 µM (inactive) |  |
| Cc1cc(C)n(CN(Cn2nc(C)cc2C)c2ccccc2)n1 | 21.8 µM (inactive) | 0.217 µM (active) | 15.6 µM (inactive) | 19.3 µM (inactive) | 19.6 µM | 40.9 µM (inactive) | 18.4 µM (inactive) | 18.2 µM (inactive) | 23.2 µM (inactive) | 20.3 µM (inactive) | 24.7 µM (inactive) | 1.5 µM (inactive) | 33.5 µM (inactive) | 23.1 µM (inactive) | 20.4 µM (inactive) | 20.4 µM (inactive) | 25.5 µM (inactive) | 2.99 µM (inactive) | 26.8 µM (inactive) |  |
| COc1ccc(N)c(C(=O)CCNC(C)=O)c1 [KINURENAMINE] | > 100 µM (inactive) | > 100 µM (inactive) |  | > 100 µM (inactive) | > 100 µM | > 100 µM (inactive) | > 100 µM (inactive) | > 100 µM (inactive) | > 100 µM (inactive) | > 100 µM (inactive) | > 100 µM (inactive) | > 100 µM (inactive) | > 100 µM (inactive) | > 100 µM (inactive) | > 100 µM (inactive) | > 100 µM (inactive) | > 100 µM (inactive) | > 100 µM (inactive) | > 100 µM (inactive) |  |
| COc1cc2nc(-c3cccs3)nc(N3C(c4cc(OC)c(OC)c(OC)c4)=NNC(=O)c4ccccc43)c2cc1OC | 18.9 µM (inactive) | 6.93 µM (inactive) | 8.34 µM (inactive) |  | 13.5 µM | 71.1 µM (inactive) |  |  | 38 µM (inactive) | 13.9 µM (inactive) | 30.8 µM (inactive) | 15.8 µM (inactive) | 78.5 µM (inactive) | 46.3 µM (inactive) | 12 µM (inactive) | 34.9 µM (inactive) | 33.9 µM (inactive) | 54.7 µM (inactive) | 31.1 µM (inactive) |  |
| CC(C)(C)C1(O)C=C(O)C(=O)N1NC(=O)c1ccccc1Nc1ccccc1 (stereo not drawn) | 28 µM (inactive) |  | 20.2 µM (inactive) | 60.5 µM (inactive) | 22.9 µM | 25.4 µM (inactive) | 54.2 µM (inactive) | 34 µM (inactive) | 16.6 µM (inactive) | 32.9 µM (inactive) | 53.6 µM (inactive) | 17.5 µM (inactive) | 38.7 µM (inactive) | 33.3 µM (inactive) | 24.7 µM (inactive) | 35.4 µM (inactive) | 66.7 µM (inactive) | 0.847 µM (active) | > 100 µM (inactive) | 19.2 µM (inactive) |
